Data as given in patent publication US10934294B2, “Substituted pyrazolo[3,4-d]pyrimidines as PDE9 inhibitors” (Merck Sharp & Dohme Corp., priority 2017, dated 2021).
Read-outs that look alike come from different tables or passages of the source.

Biological target: Human PDE9 (PDE9A2) (Homo sapiens (Human), UniProt O76083)
Assay: PDE9 IMAP fluorescence polarization (FP) inhibition assay
Assay type: biochemical
[1] = read-out: PDE9 IMAP Ki, apparent inhibition constant, FAM-cGMP substrate 50 nM, room temperature
[2] = apparent inhibition constant, FAM-cGMP substrate 50 nM, room temperature, read-out: PDE9 IMAP Ki

Sequence of Human PDE9 (PDE9A2) (O76083 other isoform, or with tags, fused parts or gaps): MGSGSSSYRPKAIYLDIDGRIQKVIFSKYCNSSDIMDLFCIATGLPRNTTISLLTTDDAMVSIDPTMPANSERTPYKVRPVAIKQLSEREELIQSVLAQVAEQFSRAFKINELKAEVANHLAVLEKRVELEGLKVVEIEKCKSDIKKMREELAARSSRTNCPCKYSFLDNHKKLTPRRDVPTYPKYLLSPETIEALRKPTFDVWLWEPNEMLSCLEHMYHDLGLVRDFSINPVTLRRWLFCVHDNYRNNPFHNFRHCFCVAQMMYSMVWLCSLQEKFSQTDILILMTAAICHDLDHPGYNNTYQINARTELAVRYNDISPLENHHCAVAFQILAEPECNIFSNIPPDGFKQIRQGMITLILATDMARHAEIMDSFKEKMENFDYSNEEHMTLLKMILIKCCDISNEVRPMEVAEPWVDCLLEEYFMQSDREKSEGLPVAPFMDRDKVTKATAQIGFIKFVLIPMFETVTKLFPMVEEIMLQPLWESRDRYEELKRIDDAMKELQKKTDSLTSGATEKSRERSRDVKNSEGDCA

SMILES	Ki [nM]	Ki [2] [nM]	other results
CC(c1cncc(F)c1)n1nc(C#N)c2c(=O)[nH]c(C3CCC3c3ncccn3)nc21 (single isomer, unassigned) [Example 64, 1-(1-(5-fluoropyridin-3-yl)ethyl)-4-oxo-6-(2-(pyrimidin-2-yl)cyclobutyl)-4,5-dihydro-1H-pyrazolo[3,4-d]pyrimidine-3-carbonitrile]	> 67.5		
CC(c1cncc(F)c1)n1nc(C#N)c2c(=O)[nH]c(C3CCC3c3ncccn3)nc21 (single isomer, unassigned) [Example 65, 1-(1-(5-fluoropyridin-3-yl)ethyl)-4-oxo-6-(2-(pyrimidin-2-yl)cyclobutyl)-4,5-dihydro-1H-pyrazolo[3,4-d]pyrimidine-3-carbonitrile]			Ki [1]: > 67.5 nM
CC(c1cnn(C)c1)n1nc(C#N)c2c(=O)[nH]c(C3CCC3c3ncccn3)nc21 (single isomer, unassigned) [Example 68, 1-(1-(1-methyl-1H-pyrazol-4-yl)ethyl)-4-oxo-6-(2-(pyrimidin-2-yl)cyclobutyl)-4,5-dihydro-1H-pyrazolo[3,4-d]pyrimidine-3-carbonitrile]	> 67.5		
CC(c1cnn(C)c1)n1nc(C#N)c2c(=O)[nH]c(C3CCC3c3ncccn3)nc21 (single isomer, unassigned) [Example 69, 1-(1-(1-methyl-1H-pyrazol-4-yl)ethyl)-4-oxo-6-(2-(pyrimidin-2-yl)cyclobutyl)-4,5-dihydro-1H-pyrazolo[3,4-d]pyrimidine-3-carbonitrile]			Ki [1]: > 67.5 nM
CC(c1cncc(F)c1)n1nc(C#N)c2c(=O)[nH]c(C3CCC3c3ncccn3)nc21 (centres unmarked) [Example 66, 1-(1-(5-fluoropyridin-3-yl)ethyl)-4-oxo-6-(2-(pyrimidin-2-yl)cyclobutyl)-4,5-dihydro-1H-pyrazolo[3,4-d]pyrimidine-3-carbonitrile]		> 67.5	
CC(c1cnn(C)c1)n1nc(C#N)c2c(=O)[nH]c(C3CCC3c3ncccn3)nc21 (centres unmarked) [Example 71, 1-(1-(1-methyl-1H-pyrazol-4-yl)ethyl)-4-oxo-6-(2-(pyrimidin-2-yl)cyclobutyl)-4,5-dihydro-1H-pyrazolo[3,4-d]pyrimidine-3-carbonitrile]	> 67.5		
CC(C1CCOCC1)n1nc(C#N)c2c(=O)[nH]c(C3CCC3c3ncc(F)cn3)nc21 (centres unmarked) [Example 85, 6-(2-(5-fluoropyrimidin-2-yl)cyclobutyl)-4-oxo-1-(1-(tetrahydro-2H-pyran-4-yl)ethyl)-4,5-dihydro-1H-pyrazolo[3,4-d]pyrimidine-3-carbonitrile]		> 607	
C[C@H](c1ccc(C(F)(F)F)nc1)n1nc(C#N)c2c(=O)[nH]c([C@@H]3CC[C@H]3c3nc(C(F)F)cc(C(F)F)n3)nc21 [Example 116, 6-((1R,2R)-2-(4,6-bis(difluoromethyl)pyrimidin-2-yl)cyclobutyl)-4-oxo-1-((R)-1-(6-(trifluoromethyl)-pyridin-3-yl)ethyl)-4,5-dihydro-1H-pyrazolo[3,4-d]pyrimidine-3-carbonitrile]		8.3	
